Toxic doses and inconclusive results are not listed. The calls were made as follows: active = survival T/C of 150% or more; inactive = T/C below 125% in these data.
Test system: CD2F1 mice, L1210 leukemia ip, survival T/C
Assay: NCI In Vivo Anticancer Drug Screen. Data for tumor model L1210 Leukemia (intraperitoneal) in CD2F1 (CDF1) mice
Conditions: endpoint: mean survival time, higher = longer survival
Summary of the method: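 Each value reflects a quotient of treated over vehicle control outcomes in mice with a transplanted tumor.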

[1] = dose: 25.0 mg/kg/injection, schedule: Q01DX009 (ip), vehicle: saline with Tween-80
[2] = dose: 50.0 mg/kg/injection, schedule: Q01DX009 (ip), vehicle: saline with Tween-80
[3] = dose: 100.0 mg/kg/injection, schedule: Q01DX009 (ip), vehicle: saline with Tween-80
[4] = dose: 200.0 mg/kg/injection, schedule: Q01DX009 (ip), vehicle: saline with Tween-80
[5] = dose: 12.5 mg/kg/injection, schedule: Q01DX005 (ip), vehicle: distilled water + Tween-80
[6] = dose: 25.0 mg/kg/injection, schedule: Q01DX005 (ip), vehicle: distilled water + Tween-80
[7] = dose: 50.0 mg/kg/injection, schedule: Q01DX005 (ip), vehicle: distilled water + Tween-80
[8] = dose: 50.0 mg/kg/injection, schedule: Q01DX009 (ip), vehicle: saline
[9] = dose: 100.0 mg/kg/injection, schedule: Q01DX009 (ip), vehicle: saline
[10] = dose: 200.0 mg/kg/injection, schedule: Q01DX009 (ip), vehicle: saline
[11] = dose: 400.0 mg/kg/injection, schedule: Q01DX009 (ip), vehicle: saline with Tween-80
[12] = dose: 100.0 mg/kg/injection, schedule: Q04DX003 (ip), vehicle: saline
[13] = dose: 200.0 mg/kg/injection, schedule: Q04DX003 (ip), vehicle: saline
[14] = dose: 400.0 mg/kg/injection, schedule: Q04DX003 (ip), vehicle: saline
[15] = dose: 100.0 mg/kg/injection, schedule: Q04DX002 (ip), vehicle: saline with Tween-80
[16] = dose: 200.0 mg/kg/injection, schedule: Q04DX002 (ip), vehicle: saline with Tween-80
[17] = dose: 100.0 mg/kg/injection, schedule: Q04DX003 (ip), vehicle: saline with Tween-80
[18] = dose: 200.0 mg/kg/injection, schedule: Q04DX003 (ip), vehicle: saline with Tween-80
[19] = dose: 400.0 mg/kg/injection, schedule: Q04DX003 (ip), vehicle: saline with Tween-80
[20] = dose: 100.0 mg/kg/injection, schedule: Q01DX001 (ip), vehicle: saline
[21] = dose: 100.0 mg/kg/injection, schedule: Q01DX001 (ip), vehicle: saline with Tween-80
[22] = dose: 200.0 mg/kg/injection, schedule: Q01DX001 (ip), vehicle: saline with Tween-80
[23] = dose: 400.0 mg/kg/injection, schedule: Q01DX001 (ip), vehicle: saline with Tween-80
[24] = dose: 100.0 mg/kg/injection, schedule: Q01DX005 (ip), vehicle: distilled water + Tween-80
[25] = dose: 200.0 mg/kg/injection, schedule: Q01DX001 (ip), vehicle: saline
[26] = dose: 400.0 mg/kg/injection, schedule: Q01DX001 (ip), vehicle: saline
[27] = dose: 400.0 mg/kg/injection, schedule: Q01DX009 (ip), vehicle: saline

Measured: T/C

C(COCCOCC1CO1)OCCOCC1CO1 (configuration not stated)
inactive: dose: 12.5 mg/kg/injection, schedule: Q01DX009 (ip), vehicle: saline with Tween-80 104 % of control | [1] 108 % of control | [2] 104 % of control | [3] 106 % of control | [4] 104 % of control

CC(=O)OCC1OC(N2C(=O)/C(=C/c3ccc4ccccc4c3)SC2=S)C(OC(C)=O)C(OC(C)=O)C1OC(C)=O (configuration not stated)
inactive: dose: 3.13 mg/kg/injection, schedule: Q01DX005 (ip), vehicle: distilled water + Tween-80 88 % of control | dose: 6.25 mg/kg/injection, schedule: Q01DX005 (ip), vehicle: distilled water + Tween-80 94 % of control | [5] 96 % of control | [6] 98 % of control | [7] 100 % of control

O=NN(CS(=O)(=O)O)c1ccccc1
inactive: [8] 101 % of control | [9] 107 % of control | [10] 95 % of control

Cc1ccc(S(=O)(=O)Oc2ccc(Cl)cc2)cc1
inactive: [3] 101 % of control | [4] 98 % of control | [11] 98 % of control

COc1cc(C)ccc1C1=CCCCC1
inactive: [12] 95 % of control | [13] 95 % of control | [14] 87 % of control

CC(=O)N/N=C/C(C)(C)C(C)(C)/C=N/NC(C)=O
inactive: [15] 103 % of control | [16] 122 % of control

O=C1C2C3CCC(CC3)C2C(=O)C2C3CCC(C3)C12 (configuration not stated)
inactive: [17] 100 % of control | [18] 92 % of control | [19] 88 % of control

C=C1C(=O)OC2C1CCC(C)C1(O)C=CC(=O)C21C (configuration not stated)
inactive: dose: 50.0 mg/kg/injection, schedule: Q01DX001 (ip), vehicle: saline 107 % of control | [20] 97 % of control

C=CCN(C(C)=O)c1nnc(N(CC=C)C(C)=O)s1
inactive: [21] 100 % of control | [22] 100 % of control | [23] 100 % of control

Nc1ccc(S(=O)(=O)S(=O)(=O)c2ccc(N)cc2)cc1
inactive: [21] 93 % of control | [22] 97 % of control

CCN(CC)C(=O)c1ccc[n+](Cc2ccc(Cl)c(Cl)c2)c1
inactive: [12] 103 % of control

CCOC(=O)C(CCC(=O)O)NC(=O)OCc1ccccc1 (configuration not stated)
inactive: [17] 97 % of control | [18] 99 % of control | [19] 91 % of control

CC1(C)OC2C(/C=C\C(=O)c3ccccc3)OC(n3ccc(=O)[nH]c3=O)C2O1 (configuration not stated)
inactive: [5] 102 % of control | [6] 100 % of control | [7] 96 % of control | [24] 103 % of control

Cc1ncc(C[P+](c2ccccc2)(c2ccccc2)c2ccccc2)c(C)c1O
inactive: dose: 75.0 mg/kg/injection, schedule: Q01DX001 (ip), vehicle: saline 102 % of control

CCN(CC)c1nc(N(CC)CC)nc(N(CC)CC)n1
inactive: [1] 93 % of control | [2] 93 % of control | [3] 95 % of control | [4] 93 % of control

NC(=O)c1cn(C2CCCCC2)c2ncccc12
inactive: [20] 96 % of control | [25] 96 % of control | [26] 102 % of control

Cc1cn(C2CC3OP(O)(=S)OCC3O2)c(=O)[nH]c1=O (configuration not stated)
inactive: dose: 8.7 mg/kg/injection, schedule: Q01DX005 (ip), vehicle: water 101 % of control | dose: 17.5 mg/kg/injection, schedule: Q01DX005 (ip), vehicle: water 102 % of control | dose: 35.0 mg/kg/injection, schedule: Q01DX005 (ip), vehicle: water 101 % of control | dose: 70.0 mg/kg/injection, schedule: Q01DX005 (ip), vehicle: water 104 % of control

O=C1NC(=O)C2(CCN(Cc3ccccc3)CC2)N1
inactive: [21] 104 % of control | [22] 101 % of control | [23] 101 % of control

C1CC[N-]CC1.[Cl][Au]([Cl])[Cl]
inactive: [1] 97 % of control | [2] 100 % of control | [17] 96 % of control

COC(=O)C12C=CC(C1)n1c(=O)n(-c3ccccc3)c(=O)n12 (configuration not stated)
inactive: [3] 98 % of control | [4] 104 % of control | [11] 96 % of control

CNS(=O)(=O)Cc1ccccc1
inactive: [17] 91 % of control | [18] 97 % of control | [19] 94 % of control

O=c1ccocc1O
inactive: dose: 200.0 mg/kg/injection, schedule: Q04DX002 (ip), vehicle: saline 95 % of control | dose: 400.0 mg/kg/injection, schedule: Q04DX002 (ip), vehicle: saline 92 % of control

CC(C)(C)C1CCC(OC(=O)C(=O)O)CC1 (configuration not stated)
inactive: [21] 100 % of control | [3] 104 % of control | [22] 97 % of control | [4] 87 % of control | [23] 95 % of control

Cn1cnc2cc(N)ccc21
inactive: [8] 95 % of control | [9] 98 % of control | [10] 98 % of control

C1=CSC(=C2SC=CS2)S1
inactive: [17] 95 % of control | [18] 102 % of control

COc1cc(OC)c(NC(=O)Nc2ccc(CCO)cc2)cc1Cl
inactive: [2] 93 % of control | [3] 86 % of control | [4] 93 % of control

COC(=O)C1(c2ccccn2)CCN(C)CC1
inactive: [9] 102 % of control | [10] 98 % of control | [27] 101 % of control

C(/C=C/c1ccccc1)=Nc1ccc(CCc2ccc(N=C/C=C/c3ccccc3)cc2)cc1
inactive: [21] 103 % of control | [22] 93 % of control | [23] 91 % of control

O=C(O)/C=C/C(=O)Nc1cccc(Oc2ccc([N+](=O)[O-])cc2[N+](=O)[O-])c1
inactive: [9] 96 % of control | [10] 100 % of control | [27] 98 % of control

Cc1ccccc1N1OS(=O)(=O)CC1(C#N)c1ccccc1 (configuration not stated)
inactive: [20] 106 % of control | [12] 98 % of control | [25] 100 % of control | [13] 101 % of control | [26] 102 % of control | [14] 96 % of control

Cc1ccc(S(=O)(=O)OC2C(O)OC3COC(c4ccccc4)OC3C2OS(=O)(=O)c2ccc(C)cc2)cc1 (configuration not stated)
inactive: [21] 94 % of control | [22] 105 % of control | [23] 94 % of control

CCOP(=S)(OCC)S/C(C(=O)NC)=C(/C)O
inactive: dose: 100.0 mg/kg/injection, schedule: Q04DX003 (sc), vehicle: Klucel + Tween-80 96 % of control | dose: 200.0 mg/kg/injection, schedule: Q04DX003 (sc), vehicle: Klucel + Tween-80 100 % of control | dose: 400.0 mg/kg/injection, schedule: Q04DX003 (sc), vehicle: Klucel + Tween-80 115 % of control | dose: 600.0 mg/kg/injection, schedule: Q04DX003 (sc), vehicle: Klucel + Tween-80 96 % of control

COc1ccc(COC(=O)Nc2ccc([N+](=O)[O-])cc2)cc1
inactive: [15] 96 % of control | [16] 96 % of control | dose: 400.0 mg/kg/injection, schedule: Q04DX002 (ip), vehicle: saline with Tween-80 96 % of control

CCCCOC(=O)CNC(=O)c1ccc(C)c(OCc2ccccc2)c1[N+](=O)[O-]
inactive: dose: 75.0 mg/kg/injection, schedule: Q01DX001 (ip), vehicle: steriod suspending solution 100 % of control | dose: 150.0 mg/kg/injection, schedule: Q01DX001 (ip), vehicle: steriod suspending solution 100 % of control | dose: 300.0 mg/kg/injection, schedule: Q01DX001 (ip), vehicle: steriod suspending solution 100 % of control

Cn1c(=O)c2c(nc(N3CCOCC3)n2CC(O)CF)n(C)c1=O (configuration not stated)
inactive: [5] 95 % of control | [6] 98 % of control | [7] 103 % of control | [24] 97 % of control | dose: 200.0 mg/kg/injection, schedule: Q01DX005 (ip), vehicle: distilled water + Tween-80 104 % of control

O=P(O)(CO)CO
inactive: [8] 95 % of control | [9] 101 % of control | [10] 95 % of control

OC(COc1ccccc1)COc1ccccc1
inactive: [3] 98 % of control | [4] 93 % of control | [11] 89 % of control
